Source: patent US10308686B2, “Gamma-AApeptides with potent and broad-spectrum antimicrobial activity” (priority 2012, dated 2019)
In brackets after ≈: the same amount, converted by molar mass. Read-outs that look alike come from different tables or passages of the source. No end group written: not given here.

Tests used:
[1] = tested on: vancomycin-resistant E. faecalis (ATCC 700802); settings: for MIC, Gram positive E. faecalis: Table 7
[2] = tested on: B. subtilis (BR151)
[3] = tested on: methicillin-resistant S. aureus (ATCC 33592); settings: for MIC, Gram positive S. aureus: Table 7
[4] = tested on: B. anthracis
[5] = tested on: multi-drug resistant S. epidermidis (RP62A); settings: for MIC, Gram positive S. epidermidis: Table 7
[6] = tested on: C. albicans (ATCC 10231)
[7] = tested on: E. coli (JM109)
[8] = tested on: human red blood cells (hRBC's); assay: Hemolysis assay; type: cell-based; settings: for Hemolysis HC10 / Hemolysis HC50: red cells of human
Method: Freshly drawn human red blood cells (hRBC's) with additive K2 EDTA (spray-dried) were washed with PBS buffer several times and centrifuged at 1000 g for 10 min until a clear supernatant was observed. The hRBC's were resuspended in 1×PBS to get a 5% v/v suspension. Two-fold serial dilutions of γ-AApeptides dissolved in 1×PBS from 250 μg/ml through 1.6 μg/ml were added to a sterile 96-well plate to make up a total volume of 50 μL in each well. Then 50 μL of 5% v/v hRBC solution was added to make up a total volume of 100 μL in each well. The 0% hemolysis point and 100% hemolysis point were determined in 1×PBS and 0.2% Triton-X-100, respectively (Patch et al., 2003). The plate was then incubated at 37° C. for 1 h and centrifuged at 3500 rpm for 10 min. The supernatant (30 μL) was diluted with 100 μL of 1×PBS and absorption was detected by measuring the optical density at 360 nm by Biotek Synergy HT microtiter plate reader. % hemolysis was determined by the following equation: % hemolysis=(Abssample−AbsPBS)/(AbsTriton−AbsPBS)×100 H50 is the concentration of γ-AApeptide amphiphiles at which 50% hemolysis was observed. The highest concentration tested in the hemolytic assay was 500 μg/ml. 7. Fluorescence Microscopy
The sequences shown in FIG. 12 were also evaluated via hemolytic assays. Freshly drawn human red blood cells (hRBC's) with additive K2 EDTA (spray-dried) were washed with PBS buffer several times and centrifuged at 1000 g for 10 min until a clear supernatant was observed. The hRBC's were resuspended in 1×PBS to get a 5% v/v suspension. Two-fold serial dilutions of lipidated γ-AApeptides dissolved in 1×PBS from 1 mg/ml through 6.3 μg/ml were added to sterile 96-well plates to make up a total volume of 50 μL in each well. Then 50 μL of 5% v/v hRBC solution was added to make up a total volume of 100 μL in each well. The 0% hemolysis point and 100% hemolysis point were determined in 1×PBS and 0.2% Triton-X-100, respectively (Patch et al., 2003). The plate was then incubated at 37° C. for 1 h and centrifuged at 3500 rpm for 10 min. The supernatant (30 μL) was diluted with 100 μL of 1×PBS and absorption was detected by measuring the optical density at 360 nm with a Biotek Synergy HT microtiter plate reader. % hemolysis was determined by the following equation: % hemolysis=(Abs sample−Abs PBS)/(Abs Triton−Abs PBS)×100

[9] = tested on: human red blood cells (hRBC's); settings: cited from earlier work
[10] = tested on: Gram-positive and Gram-negative bacteria and the fungus C. albicans; assay: Antimicrobial assays, whole panel (statements in words); type: cell-based
[11] = tested on: K. pneumoniae (ATCC 13383)
[12] = tested on: multi-drug resistant P. aeruginosa ATCC 27853; settings: ATCC 27853
[13] = tested on: methicillin-resistant S. aureus (MRSA, USA100 lineage)
[14] = tested on: S. aureus ATCC 33592; type: cell-based; settings: serial passage at half-MIC

Molecule | MIC, E. faecalis (vancomycin-resistant) ([1]; Table 1) [µg/mL] | MIC, B. subtilis [2] [µg/mL] | MIC, S. aureus (methicillin-resistant) ([3]; Table 1) [µg/mL] | MIC, B. anthracis (lethal bioweapon) ([4]; Table 1) [µg/mL] | MIC, S. epidermidis (multi-drug resistant) ([5]; Table 1) [µg/mL] | MIC, Fungi C. albicans ([6]; ATCC 10231, 48 h) [µg/mL] | MIC, E. coli [7] [µg/mL] | Hemolysis (H50) [8] [µg/mL] | MIC, Gram positive E. faecalis [1] [µg/mL] | MIC, Gram positive B. subtilis [2] [µg/mL] | MIC, Gram positive S. aureus [3] [µg/mL] | MIC, Gram positive S. epidermidis [5] [µg/mL] | MIC, Fungi, C. albicans ([6]; ATCC 10231) [µg/mL] | MIC, Gram negative K. pneumoniae [11] [µg/mL] | MIC, Gram negative E. coli [7] [µg/mL] | Hemolysis HC10 [8] [µg/mL] | Hemolysis HC50 [8] [µg/mL] | MIC, Gram negative P. aeruginosa [12] [µg/mL] | MIC, K. pneumoniae (causing pneumonia) [11] [µg/mL] | also measured
CC(C)C[C@@H](CN(CC(=O)N[C@@H](CCCCN)CN(CC(=O)N[C@@H](CCCCN)CN(CC(=O)N[C@@H](CCCCN)CN(CC(N)=O)C(=O)CCc1ccccc1)C(=O)CCc1ccccc1)C(=O)CCc1ccccc1)C(=O)CCc1ccccc1)NC(=O)CN(C[C@H](CCCCN)NC(=O)CN(C[C@H](CCCCN)NC(=O)CN(C[C@@H](N)CCCCN)C(=O)CCc1ccccc1)C(=O)CCc1ccccc1)C(=O)CCc1ccccc1 [γ4] | 12.5 to 25 | 2.5 (≈ 1.18 µM) | 3.1 to 6.25 | 25 to 50 | 3.1 to 6.25 | 12.5 to 25 | 2.5 to 5 | >500 | – | – | – | – | – | – | – | – | – | – | – | –
GIGKFLKKAKKFGKAFVKILKK-NH2 [Pexiganan, pexiganan] | – | – | – | – | – | – | – | – | – | – | – | – | – | – | – | – | – | – | – | Hemolysis (H50) [9]: >500 µg/mL; Hemolysis H10 [9]: 181 µg/mL; Hemolysis H50 [9]: 495 µg/mL
CCCCCCCCCCCC(=O)N[C@@H](CCCCN)CN(CC(N)=O)C(=O)CCCN [Sequence 1] | – | – | – | – | – | – | – | – | >50 | >50 | >50 | >50 | >50 | >50 | >50 | 400 | > 500 | >50 | – | antimicrobial activity against the tested panel, in words [10]: not active toward any microorganism
CC(C)C[C@@H](CN(CC(=O)N[C@@H](CCCCN)CN(CC(N)=O)C(=O)CCc1ccccc1)C(=O)CCc1ccccc1)NC(=O)CN(C[C@H](CCCCN)NC(=O)CN(C[C@H](CCCCN)NC(=O)CN(C[C@H](CC(C)C)NC(=O)CN(C[C@H](CCCCN)NC(=O)CN(C[C@@H](N)CCCCN)C(=O)CCc1ccccc1)C(=O)CCc1ccccc1)C(=O)CCc1ccccc1)C(=O)CCc1ccccc1)C(=O)CCc1ccccc1 [γ5] | 3.1 to 6.25 | 2 (≈ 0.947 µM) | 5 (≈ 2.37 µM) | 5 (≈ 2.37 µM) | 3.1 to 6.25 | 5 to 10 | 2.5 to 5 | 300 | 5 (≈ 2.37 µM) | 2 (≈ 0.947 µM) | 5 (≈ 2.37 µM) | 5 (≈ 2.37 µM) | 8 (≈ 3.79 µM) | 5 (≈ 2.37 µM) | 3 (≈ 1.42 µM) | 75 | 300 | >50 | 5 (≈ 2.37 µM) | MIC, E. faecalis (vancomycin-resistant) ([1]; Table 3): 3.1 to 6.3 µg/mL; MIC, MRSA USA100 (leading hospital-associated strain) ([13]; Table 1): 5 µg/mL (≈ 2.37 µM); MIC, MRSA USA100 ([13]; Table 3): 5 µg/mL (≈ 2.37 µM); MIC, S. epidermidis (multi-drug resistant) ([5]; Table 3): 3.1 to 6.3 µg/mL; MIC, Fungi C. albicans ([6]; ATCC 10231): 5 to 10 µg/mL; Hemolysis H10 [8]: 75 µg/mL; Hemolysis H50 [8]: 300 µg/mL; MIC, P. aeruginosa [12]: 25 to 50 µg/mL
NCCCC[C@@H](C(N)=O)N(CCNC(=O)[C@H](CCCCN)N(CCNC(=O)[C@H](CCCCN)N(CCNC(=O)[C@H](CCCCN)N(CCNC(=O)[C@H](CCCCN)N(CCNC(=O)[C@H](CCCCN)N(CCNC(=O)[C@H](CCCCN)N(CCN)C(=O)CCc1ccccc1)C(=O)CCc1ccccc1)C(=O)CCc1ccccc1)C(=O)CCc1ccccc1)C(=O)CCc1ccccc1)C(=O)CCc1ccccc1)C(=O)CCc1ccccc1 [α1, reference compound] | – | 2 (≈ 0.934 µM) | – | – | – | 20 to 30 | 4.5 (≈ 2.1 µM) | – | – | – | – | – | – | – | – | – | – | – | >100 | MIC, E. faecalis (vancomycin-resistant) ([1]; ATCC 700802): 75 µg/mL (≈ 35 µM); MIC, S. aureus (methicillin-resistant) ([3]; ATCC 33592): 75 µg/mL (≈ 35 µM); MIC, B. anthracis (lethal bioweapon) [4]: >100 µg/mL; MIC, MRSA USA100 (leading hospital-associated strain) ([13]; USA100): >100 µg/mL; MIC, S. epidermidis (multi-drug resistant) ([5]; multi-drug resistant (RP62A)): 10 µg/mL (≈ 4.67 µM); Hemolysis (H50) ([8]; Table 1, concentration at which 50% hemolysis was observed): >500 µg/mL
NCCCC[C@H](N)CN(CC(=O)N[C@@H](CCCCN)CN(CC(=O)N[C@@H](CCCCN)CN(CC(=O)N[C@@H](CCCCN)CN(CC(=O)N[C@@H](CCCCN)CN(CC(=O)N[C@@H](CCCCN)CN(CC(=O)N[C@@H](CCCCN)CN(CC(N)=O)C(=O)CCc1ccccc1)C(=O)CCc1ccccc1)C(=O)CCc1ccccc1)C(=O)CCc1ccccc1)C(=O)CCc1ccccc1)C(=O)CCc1ccccc1)C(=O)CCc1ccccc1 [γ3] | 12.5 to 25 | 2.5 (≈ 1.17 µM) | 12.5 to 25 | 25 to 50 | 6.25 to 12.5 | 12.5 to 25 | 2.5 to 5 | >500 | – | – | – | – | – | – | – | – | – | – | >100 | –
CCn1cc(C(=O)O)c(=O)c2cc(F)c(N3CCNCC3)cc21 [norfloxacin, reference compound] | – | – | – | – | – | – | – | – | – | – | – | – | – | – | – | – | – | – | – | passages after which the MIC started to increase [14]: three
KFKFKFKFKFKFKF-NH2 [pl, reference compound] | >100 | >100 | >100 | – | >100 | >100 | >100 | >500 | – | – | – | – | – | – | – | – | – | – | >100 | antimicrobial activity against the tested panel, in words [10]: does not show any antimicrobial activity at all
CCCCCCCCCCCCCCCC(=O)N[C@@H](CCCCN)CN(CC(N)=O)C(=O)CCCN [Sequence 2] | – | – | – | – | – | – | – | – | 2.5 (≈ 4.88 µM) | 1.5 (≈ 2.93 µM) | 2.5 (≈ 4.88 µM) | 2 (≈ 3.91 µM) | 2 (≈ 3.91 µM) | 35 (≈ 68.4 µM) | 2.5 (≈ 4.88 µM) | 25 | 40 | 10 (≈ 19.5 µM) | – | –
CC(=O)N(CC(=O)N[C@@H](C)CN(CC(=O)N[C@@H](CC(C)C)CN(CC(=O)N[C@@H](CC(C)C)CN(CC(=O)N[C@@H](CC(C)C)CN(CC(N)=O)C(=O)CCCN)C(=O)CCCN)C(=O)CCCN)C(C)=O)C[C@H](C)N [Sequence 9] | – | – | – | – | – | – | – | – | >100 | >100 | >100 | >100 | >100 | >100 | >100 | 120 | > 500 | >100 | – | –
